# From ChEMBL document CHEMBL1201862, “PubChem BioAssay data set” (2004)
#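 The compound was tested at five concentrations on cells cultured in 96-well plates, with a 48-hour exposure period. GI50 marks 50% less growth.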 Calls of active or inactive are those of the source. No stated cut-off is given here; in the data, active = GI50 up to about 1.1 µM and inactive = higher.
# What was measured:
# Experiment in all cases: NCI tumour cell line growth inhibition, 48 h
# [1] = system: SN12C
# [2] = system: IGROV-1
# [3] = system: SNB-19
# [4] = system: HOP-62
# [5] = system: Malme-3M
# [6] = system: ACHN
# [7] = system: COLO 205
# [8] = system: CCRF-CEM
# [9] = system: MCF7
# [10] = system: SK-MEL-28
# [11] = system: OVCAR-5
# [12] = system: SF-268
# [13] = system: CAKI-1
# [14] = system: DU-145
# [15] = system: PC-3
# [16] = system: A549
# [17] = system: HCT-116
# [18] = system: U-251
# [19] = system: SK-OV-3
# [20] = system: MDA-N
# [21] = system: K562
# [22] = system: NCI-H522
# [23] = system: NCI-H23
# [24] = system: Hs-578T
# [25] = system: 786-0
# [26] = system: BT-549
# [27] = system: OVCAR-4
# [28] = system: OVCAR-8
# [29] = system: TK-10
# [30] = system: NCI-H226
# [31] = system: SK-MEL-5
# [32] = system: NCI-H460
# [33] = system: HCC 2998
# [34] = system: A498
# [35] = system: RPMI-8226
# [36] = system: MDA-MB-231
# [37] = system: NCI/ADR-RES
# [38] = system: OVCAR-3
# [39] = system: M14
# [40] = system: MDA-MB-435
# [41] = system: UACC-257
# [42] = system: UO-31
# [43] = system: T47D
# [44] = system: SF-295
# [45] = system: EKVX
# [46] = system: SW-620
# [47] = system: RXF 393
# [48] = system: UACC-62
# [49] = system: KM12
# [50] = system: MOLT-4
# [51] = system: HCT-15
# [52] = system: SNB-75
# [53] = system: SK-MEL-2
# [54] = system: HT-29
# [55] = system: SF-539
# [56] = system: HOP-92
# [57] = system: SR
# [58] = system: HL-60
# [59] = system: LOX IMVI
smiles,measurement,setting,value
S=C(N1CCN(c2ccccc2)CC1)N1CCN(c2ccccc2)CC1,GI50,[1],> 100 µM (inactive)
same,GI50,[2],90.8 µM (inactive)
same,GI50,[3],> 100 µM (inactive)
same,GI50,[4],> 100 µM (inactive)
same,GI50,[5],> 100 µM (inactive)
same,GI50,[6],> 100 µM (inactive)
same,GI50,[7],> 100 µM (inactive)
same,GI50,[8],24.4 µM (inactive)
same,GI50,[9],> 100 µM (inactive)
same,GI50,[10],86.9 µM (inactive)
same,GI50,[11],> 100 µM (inactive)
same,GI50,[12],> 100 µM (inactive)
same,GI50,[13],> 100 µM (inactive)
same,GI50,[14],> 100 µM (inactive)
same,GI50,[15],> 100 µM (inactive)
same,GI50,[16],> 100 µM (inactive)
same,GI50,[17],81.8 µM (inactive)
same,GI50,[18],> 100 µM (inactive)
same,GI50,[19],> 100 µM (inactive)
same,GI50,[20],89.5 µM (inactive)
same,GI50,[21],> 100 µM (inactive)
same,GI50,[22],> 100 µM (inactive)
same,GI50,[23],> 100 µM (inactive)
same,GI50,[24],> 100 µM (inactive)
same,GI50,[25],> 100 µM (inactive)
same,GI50,[26],> 100 µM (inactive)
same,GI50,[27],> 100 µM (inactive)
same,GI50,[28],> 100 µM (inactive)
same,GI50,[29],> 100 µM (inactive)
same,GI50,[30],94.6 µM (inactive)
same,GI50,[31],95.1 µM (inactive)
same,GI50,[32],> 100 µM (inactive)
same,GI50,[33],> 100 µM (inactive)
same,GI50,[34],> 100 µM (inactive)
same,GI50,[35],> 100 µM (inactive)
same,GI50,[36],> 100 µM (inactive)
same,GI50,[37],> 100 µM (inactive)
same,GI50,[38],> 100 µM (inactive)
same,GI50,[39],> 100 µM (inactive)
same,GI50,[40],> 100 µM (inactive)
same,GI50,[41],> 100 µM (inactive)
same,GI50,[42],> 100 µM (inactive)
same,GI50,[43],> 100 µM (inactive)
same,GI50,[44],52.1 µM (inactive)
same,GI50,[45],> 100 µM (inactive)
same,GI50,[46],> 100 µM (inactive)
same,GI50,[47],> 100 µM (inactive)
same,GI50,[48],> 100 µM (inactive)
same,GI50,[49],> 100 µM (inactive)
same,GI50,[50],71.3 µM (inactive)
same,GI50,[51],> 100 µM
same,GI50,[52],27.2 µM (inactive)
same,GI50,[53],> 100 µM (inactive)
same,GI50,[54],55.2 µM (inactive)
NCCC1([N+](=O)[O-])C=CN=CC1 (configuration not stated),GI50,[1],> 100 µM (inactive)
same,GI50,[2],> 100 µM (inactive)
same,GI50,[3],> 100 µM (inactive)
same,GI50,[5],> 100 µM (inactive)
same,GI50,[6],> 100 µM (inactive)
same,GI50,[55],> 100 µM (inactive)
same,GI50,[7],> 100 µM (inactive)
same,GI50,[8],> 100 µM (inactive)
same,GI50,[10],> 100 µM (inactive)
same,GI50,[11],> 100 µM (inactive)
same,GI50,[12],> 100 µM (inactive)
same,GI50,[56],< 0.01 µM (active)
same,GI50,[13],> 100 µM (inactive)
same,GI50,[14],> 100 µM (inactive)
same,GI50,[15],> 100 µM (inactive)
same,GI50,[16],> 100 µM (inactive)
same,GI50,[17],> 100 µM (inactive)
same,GI50,[18],> 100 µM (inactive)
same,GI50,[57],> 100 µM (inactive)
same,GI50,[19],> 100 µM (inactive)
same,GI50,[20],> 100 µM (inactive)
same,GI50,[21],> 100 µM (inactive)
same,GI50,[22],> 100 µM (inactive)
same,GI50,[23],> 100 µM (inactive)
same,GI50,[24],> 100 µM (inactive)
same,GI50,[25],> 100 µM (inactive)
same,GI50,[26],> 100 µM (inactive)
same,GI50,[27],> 100 µM (inactive)
same,GI50,[28],> 100 µM (inactive)
same,GI50,[29],> 100 µM (inactive)
same,GI50,[30],> 100 µM (inactive)
same,GI50,[31],> 100 µM (inactive)
same,GI50,[32],> 100 µM (inactive)
same,GI50,[34],> 100 µM (inactive)
same,GI50,[35],> 100 µM (inactive)
same,GI50,[36],> 100 µM (inactive)
same,GI50,[37],> 100 µM (inactive)
same,GI50,[58],> 100 µM (inactive)
same,GI50,[39],> 100 µM (inactive)
same,GI50,[40],> 100 µM (inactive)
same,GI50,[41],> 100 µM (inactive)
same,GI50,[42],> 100 µM (inactive)
same,GI50,[43],> 100 µM (inactive)
same,GI50,[44],> 100 µM (inactive)
same,GI50,[45],> 100 µM (inactive)
same,GI50,[46],> 100 µM (inactive)
same,GI50,[47],> 100 µM (inactive)
same,GI50,[48],> 100 µM (inactive)
same,GI50,[49],> 100 µM (inactive)
same,GI50,[50],> 100 µM (inactive)
same,GI50,[51],> 100 µM
same,GI50,[52],6.98 µM (inactive)
same,GI50,[53],> 100 µM (inactive)
same,GI50,[54],> 100 µM (inactive)
CC(NC(=O)C(N)CC(=O)O)NC(=O)C1CCC1 (configuration not stated),GI50,[1],> 100 µM (inactive)
same,GI50,[2],> 10 µM (inactive)
same,GI50,[3],> 100 µM (inactive)
same,GI50,[4],> 100 µM (inactive)
same,GI50,[5],> 100 µM (inactive)
same,GI50,[6],> 100 µM (inactive)
same,GI50,[55],> 100 µM (inactive)
same,GI50,[7],> 100 µM (inactive)
same,GI50,[8],> 100 µM (inactive)
same,GI50,[9],> 100 µM (inactive)
same,GI50,[10],> 100 µM (inactive)
same,GI50,[11],> 100 µM (inactive)
same,GI50,[12],> 100 µM (inactive)
same,GI50,[13],> 100 µM (inactive)
same,GI50,[14],> 100 µM (inactive)
same,GI50,[15],> 100 µM (inactive)
same,GI50,[16],> 100 µM (inactive)
same,GI50,[17],> 100 µM (inactive)
same,GI50,[18],> 100 µM (inactive)
same,GI50,[19],28.2 µM (inactive)
same,GI50,[20],> 100 µM (inactive)
same,GI50,[21],> 100 µM (inactive)
same,GI50,[22],> 100 µM (inactive)
same,GI50,[23],> 100 µM (inactive)
same,GI50,[59],> 100 µM (inactive)
same,GI50,[24],> 100 µM (inactive)
same,GI50,[25],> 100 µM (inactive)
same,GI50,[26],> 100 µM (inactive)
same,GI50,[27],> 100 µM (inactive)
same,GI50,[28],> 100 µM (inactive)
same,GI50,[29],> 100 µM (inactive)
same,GI50,[30],> 100 µM (inactive)
same,GI50,[31],> 100 µM (inactive)
same,GI50,[32],> 100 µM (inactive)
same,GI50,[34],> 100 µM (inactive)
same,GI50,[35],> 100 µM (inactive)
same,GI50,[36],> 100 µM (inactive)
same,GI50,[37],> 100 µM (inactive)
same,GI50,[38],> 100 µM (inactive)
same,GI50,[39],> 100 µM (inactive)
same,GI50,[40],> 100 µM (inactive)
same,GI50,[41],> 100 µM (inactive)
same,GI50,[42],> 100 µM (inactive)
same,GI50,[43],> 100 µM (inactive)
same,GI50,[45],> 100 µM (inactive)
same,GI50,[46],> 100 µM (inactive)
same,GI50,[47],> 100 µM (inactive)
same,GI50,[48],> 100 µM (inactive)
same,GI50,[49],> 100 µM (inactive)
same,GI50,[50],> 100 µM (inactive)
same,GI50,[51],> 100 µM
same,GI50,[52],> 100 µM (inactive)
same,GI50,[53],> 100 µM (inactive)
same,GI50,[54],> 100 µM (inactive)
